According to patent US20250295711A1, “FOOD SUPPLEMENT” (FONTERRA CO-OPERATIVE GROUP LIMITED, priority 2022, published 2025):
Marks after values point to notes of the source that are not given here.

What was measured:
Assay type in all cases: in vivo, rat
CUMS rats [1] = experiment: Open field test in CUMS (chronic unpredictable mild stress) rats
Description: (§1) A series of experiments were conducted using the chronic unpredictable mild stress (CUMS) rodent model. Rats were exposed daily to any two of the following mild physiological stresses selected at random: • 12 hours of water deprivation • 12 hours of food deprivation • 8 hours of damp sawdust • 24 hours of reversed light/dark cycle • 2 minutes of tail pinching • 1 hour of 60 Hz noise • 15 minutes of cage shaking • Swimming in 4° C. water for 5-10 minutes • 2 hours of restraining.
(§2) Six groups of rats were assessed: • 1. Control rats: rats raised normally without stress treatments and without nutritional or drug interventions. • 2. CUMS rats: rats subjected to the CUMS protocol but without nutritional or drug interventions. • 3. CUMS HN001: rats subjected to the CUMS protocol and given HN001. • 4. CUMS HN019: rats subjected to the CUMS protocol and given HN019. • 5. CUMS HN001+HN019: rats subjected to the CUMS protocol given both HN001 and HN019. • 6.
(§3) Baseline assessments were then conducted, including blood collection. For the next 40 days, rats in groups 2-6 were exposed to CUMS treatments to induce depression symptoms associated with stress and anxiety.
(§4) Tests were then carried out to assess rat behaviours, such as the open field test and the elevated maze test (see FIG. 2). These are standard ways to measure rat stress and anxiety traits.

CUMS rats [2] = experiment: Elevated-plus maze test in CUMS rats
Description: as §1, §2, §3, §4

TNF-α = TNF-α content in serum, brain and colon of CUMS rats
Description: as §1, §2, §3
(§5) A series of blood markers were assessed.

IL-6 = IL-6 content in serum, brain and colon of CUMS rats
Description: as §1, §2, §3, §5

[3] = tested on: Corticotropin Releasing Hormone (CRH); experiment: Serum corticotropin releasing hormone content in CUMS rats; settings: after CUMS, before intervention
Description: as §1, §2, §3

[4] = tested on: Adrenocorticotropic Hormone (ACTH); experiment: Serum adrenocorticotropic hormone content in CUMS rats
Description: as §1, §2, §3

[5] = tested on: TNF-alpha, IL-6, IL-1β and IL-18; experiment: Cytokines TNF-alpha, IL-6, IL-1β and IL-18 in serum, brain tissue and colon of CUMS rats; settings: versus CUMS
Description: as §1, §2, §3, §5

brain and colon tissue = experiment: HE staining of brain and colon tissues of CUMS rats; settings: FIG. 5
Text: Brain tissues included two regions from the hippocampus (Dentate Gyrus (DG) and CA1) and a region from the cortex (P2).
Brain and colon tissue were stained using the HE method. Brain tissue included two regions from the hippocampus (Dentate Gyrus (DG) and CA1) and a region from the cortex (P2). The results are shown in FIG. 5 and reveal that for the control group, neurons in hippocampal regions (dentate gyrus (DG) and Ca1) and the cortex (P2) were normal, orderly, tightly packed cells. The cells had expected morphology, homogeneous cytoplasmic staining, and no increased interstitial or abnormal changes.
For the colon tissue, control intestinal villi were arranged neatly, with normal cell morphology and no obvious damage was seen.

[6] = after CUMS, before intervention
[7] = base line, before CUMS and before intervention
[8] = serum, after CUMS with intervention
[9] = serum, after CUMS, before intervention

SMILES: CNCCC(Oc1ccc(C(F)(F)F)cc1)c1ccccc1 (stereo not shown) [Flu, fluoxetine, reference compound]
- Total Distance Travelled in Open Field Test, After CUMS only (x ± S) (CUMS rats [1]; after 40 days CUMS, before intervention): 2.89 ± 2.15^a Metres
- Vertical Movement (Number of Times Standing Up) in Open Field Test, After intervention (x ± S) (CUMS rats [1]; after CUMS with intervention): 11.20 ± 3.49^b
- Vertical Movement (Number of Times Standing Up) in Open Field Test, After CUMS (x ± S) (CUMS rats [1]; [6]): 2.00 ± 1.79^a
- Total Distance Travelled in Open Field Test, Base line (x ± S) (CUMS rats [1]; [7]): 23.34 ± 2.98 Metres
- Vertical Movement (Number of Times Standing Up) in Open Field Test, Base line (x ± S) (CUMS rats [1]; [7]): 17.20 ± 8.04
- Time in Closed Arms in Elevated Plus Maze, After intervention (x ± S) (CUMS rats [2]; after CUMS with intervention): 224.96 ± 18.71^b Seconds
- Total Distance Travelled in Elevated Maze Test, After intervention (x ± S) (CUMS rats [2]; after CUMS with intervention): 6.19 ± 1.75^b Metres
- Time in Closed Arms in Elevated Plus Maze, After CUMS (x ± S) (CUMS rats [2]; [6]): 292.57 ± 8.90^a Seconds
- Total Distance Travelled in Elevated Maze Test, After CUMS (x ± S) (CUMS rats [2]; [6]): 2.37 ± 1.12^a Metres
- Time in Closed Arms in Elevated Plus Maze, Base line (x ± S) (CUMS rats [2]; [7]): 240.31 ± 16.95 s
- Total Distance Travelled in Elevated Maze Test, Base line (x ± S) (CUMS rats [2]; [7]): 7.44 ± 1.38 Metres
- TNF-α Content, Brain (TNF-α; brain, end of experiment): 48.62 ± 7.26^b pg/ml
- TNF-α Content, Colon (TNF-α; colon, end of experiment): 69.09 ± 12.48^b pg/ml
- TNF-α Content, serum-after intervention (TNF-α; [8]): 9.83 ± 3.83^b pg/ml
- TNF-α Content, serum-after CUMS (TNF-α; [9]): 23.35 ± 6.46^a pg/ml
- IL-6 Content, Brain (IL-6; brain, end of experiment): 19.35 ± 4.29^b pg/ml
- IL-6 Content, Colon (IL-6; colon, end of experiment): 30.89 ± 7.22^b pg/ml
- IL-6 Content, serum-after intervention (IL-6; [8]): 9.83 ± 3.83^b pg/ml
- IL-6 Content, serum-after CUMS (IL-6; [9]): 13.35 ± 6.46^a pg/ml
- Serum Corticotropin Releasing Hormone (CRH) Content, After CUMS [3]: 5.50 ± 2.02^a pg/ml
- Serum Adrenocorticotropic Hormone (ACTH) Content, After intervention ([4]; after CUMS with intervention): 2.90 ± 2.20^b pg/ml
- Serum Adrenocorticotropic Hormone (ACTH) Content, After CUMS [4, 6]: 5.58 ± 1.41^a pg/ml
- Levels of cytokines TNF-alpha, IL-6, IL-1β and IL-18 [5]: reduced levels of cytokines
- Morphology of hippocampus (DG, CA1) and cortex (P2) (brain and colon tissue; brain): CUMS-associated damage was largely reduced
- Morphology of colon tissue (intestinal villi, mucosa) (brain and colon tissue; colon): largely reduced
